Source: patent publication US10869851B1, “Targeting NUR77 for mitigating perinatal neuroinflammation” (The United States Government as represented by the …, priority 2017, dated 2020)

Legend:
Nur77 expression = test: Intrauterine LPS preterm labor/neuroinflammation model, Nur77 expression in fetal brain (microarray, qRT-PCR); set-up: species or system CD1 mice; conditions: mouse, in vivo
Experimental: (§1) Mice were randomly assigned to six groups: Group 1) 4 pups/PBS+normal saline (NS), Group 2) 4 pups/LPS+NS, Group 3) 4 pups/LPS+MgSO4, Group 4) 4 pups/LPS+BMZ, Group 5) 4 pups/LPS+MgSO4 and BMZ, and Group 6) 4 pups/LPS+TMPA. Except for the non-surgical control (Group 1), each group underwent intrauterine injection of either vehicle or LPS. Phosphate buffered saline (PBS) and normal saline (NS) were used for the control groups. […] Mice received 300 μl of normal saline prior to surgery as a precaution against dehydration. All surgical procedures were performed under anesthesia with isoflurane within a sterile environment using PPE and sterile surgical tools to prevent infection. E15.5 pup brains were compared 6 hours post LPS within the six treatment groups as described in Table 1:
Mice randomized to Groups 3-5 received a single subcutaneous (SQ) injection of 0.1 mg of MgSO4 and/or BMZ 30 minutes after intrauterine injection of LPS, per the Hallak protocol: 270 mg/kg SQ loading dose followed by 27 mg/kg SQ every 20 minutes for a four-hour duration. Mice randomized to Group 6 received a single dose of 50 mg/kg TMPA (approximately 2 mg of TMPA in 80 μl dimethyl sulfoxide (DMSO)) 30 minutes post-operative, as described by Zhan et al..

Ccr2 = test: Intrauterine LPS neuroinflammation model, fetal brain qRT-PCR of Ccr2; assay type: in vivo, CD1 mice
Experimental: as §1
(§2) Mice randomized to Groups 3-5 received a single subcutaneous (SQ) injection of 0.1 mg of MgSO4 and/or BMZ 30 minutes after intrauterine injection of LPS, per the Hallak protocol: 270 mg/kg SQ loading dose followed by 27 mg/kg SQ every 20 minutes for a four-hour duration. […]
(§3) A power analysis was conducted to determine the appropriate number of subjects. Using data, it was determined that a minimum number of pups per treatment group of […] was necessary to obtain statistical power at the 0.80 level.

Ikbkb = test: Intrauterine LPS neuroinflammation model, fetal brain qRT-PCR of Ikbkb; assay type: in vivo, CD1 mice
Experimental: as §1, §2, §3

Nos2 = test: Intrauterine LPS neuroinflammation model, fetal brain qRT-PCR of Nos2; assay type: in vivo, CD1 mice
Experimental: as §1, §2, §3

cerebral palsy = conditions: meta-analysis [9]; cited from earlier work
[1] = E15.5, 6 hours post LPS, LPS+treatment vs LPS

## O=S(=O)([O-])[O-].[Mg+2] [MgSO4, magnesium sulfate]
Nur77 expression
  Nur77 expression (quantitative reverse-transcriptase PCR validation): reduced
  Nur77 expression in fetal brain tissue (microarray): significantly reduced
Ccr2; mouse, in vivo
  Ccr2 expression in embryonic brain: only significantly lower for Ikbkb
Ikbkb; mouse, in vivo
  Ikbkb expression in embryonic brain: significantly lower
Nos2; mouse, in vivo
  Nos2 expression in embryonic brain: only significantly lower for Ikbkb
Cerebral palsy
  women in preterm labor treated per single case of cerebral palsy prevented: 46

## CCCCCCCC(=O)c1cc(OC)c(OC)c(OC)c1CC(=O)OCC [TMPA, ethyl 2-(2,3,4-trimethoxy-6-octanoylphenyl)acetate]
Ccr2; [1]
  Ccr2 expression in embryonic brain: significantly lower vs. LPS
Ikbkb; [1]
  Ikbkb expression in embryonic brain: significantly lower vs. LPS
Nos2; [1]
  Nos2 expression in embryonic brain: significantly lower vs. LPS
